In US5519034A, “Tetraisoquinoline compounds which have useful pharmaceutical utility” (The Boots Company PLC, priority 1991, dated 1996):
Where two headings read alike, the source gives them in different places.

Columns and labels:
D1 dopamine receptors = target: T1, D1 dopamine receptors (Rattus norvegicus, UniProt P18901); assay: D1 dopamine receptor binding: inhibition of tritiated SCH 23390 binding, rat striatal samples; set-up: species or system rat (male Charles River CD rats); conditions: rat striatum, tritiated SCH 23390, pH 7.4, 37° C., 30 minutes
T1 construct: Striatal samples from the brains of male Charles River CD rats; from tissue; host or cells: striatum of male Charles River CD rats (washed membrane pellet)
T1 sequence (P18901 whole entry): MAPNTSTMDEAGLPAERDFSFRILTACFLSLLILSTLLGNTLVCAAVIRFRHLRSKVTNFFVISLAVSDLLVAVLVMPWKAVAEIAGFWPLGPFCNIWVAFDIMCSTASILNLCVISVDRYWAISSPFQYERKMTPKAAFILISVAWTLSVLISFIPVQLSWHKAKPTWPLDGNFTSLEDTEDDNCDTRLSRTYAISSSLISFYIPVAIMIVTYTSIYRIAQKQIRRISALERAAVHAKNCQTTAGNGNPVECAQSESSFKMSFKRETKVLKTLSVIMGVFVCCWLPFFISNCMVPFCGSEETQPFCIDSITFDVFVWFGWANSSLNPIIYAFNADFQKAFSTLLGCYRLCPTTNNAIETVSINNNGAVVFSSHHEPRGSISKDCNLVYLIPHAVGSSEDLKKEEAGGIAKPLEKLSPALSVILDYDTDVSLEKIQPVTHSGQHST
Method: (§1) Striatal samples from the brains of male Charles River CD rats weighing between 140-250 g were homogenised in ice-cold 50 mM Tris-HCl buffer (pH 7.4 when measured at 25° C. for D1 binding assays and pH 7.7 when measured at 25° C. for D2 binding assays) and centrifuged for 10 minutes (at 21,000 g when used for D1binding assay and 40,000 g when used for D2binding assays). The pellet was resuspended in the same buffer, again centrifuged and the final pellet stored at -80° C. Before each test the pellet was resuspended in 50 mM Tris-HCl buffer containing 120 mM NaCl, 5 mM KCl, 2 mM CaCl2 and 1 mM MgCl2 at pH 7.4 for the D1 binding assays and at pH 7.7 with the addition of 6 mM ascorbic acid for the D2 binding assays. Aliquots of this suspension were then added to tubes containing the ligand and either the compound under test or buffer. For the D1 binding assays the ligand was tritiated SCH 23390 and the mixture was incubated at 37° C. for 30 minutes before the incubation was terminated by rapid filtration. For the D2 binding assays the ligand was tritiated (S)-sulpiride and the mixture was incubated at 4° C. for 40 minutes before the incubation was terminated by rapid filtration. Non-specific binding was determined experimentally by the addition of saturating concentrations of chloropromazine or spiroperidol for D1 and D2 receptors respectively.
(§2) The filters were washed with ice-cold Tris-HCl buffer and dried. The filters were punched out on to vials containing scintillation fluid and were left for about 20 hours before being counted by scintillation spectrophotometry. Displacement curves were produced over a range of concentrations of the compound under test and the concentration which gave a 50% inhibition of specific binding (IC50) obtained from the curve. The inhibition coefficient Ki was then calculated using the formula [formula] in which [ligand] is the concentration of the tritiated ligand used and KD is the equilibrium dissociation constant for the ligand.
(§3) In some cases Ki values for D2 binding were estimated from single concentration data by the application of the Langmuir adsorption isotherm equation. These cases are indicated by an "E" in the last two columns of Table I. In other cases it was not possible to determine or estimate the Ki and the Ki value is given as greater than (>) that which would result from the application of the above formula to the highest concentration which displaced ≤50% of the ligand.

D2 dopamine receptors = target: T2, D2 dopamine receptors (Rattus norvegicus, UniProt P61169); assay: D2 dopamine receptor binding: inhibition of tritiated (S)-sulpiride binding, rat striatal samples; set-up: species or system rat (male Charles River CD rats); conditions: for Ki: rat striatum, tritiated (S)-sulpiride; for Ki for D2 / Ki for D1: ratio to two significant figures
T2 construct: Striatal samples from the brains of male Charles River CD rats; from tissue; host or cells: striatum of male Charles River CD rats (washed membrane pellet)
T2 sequence (P61169 whole entry): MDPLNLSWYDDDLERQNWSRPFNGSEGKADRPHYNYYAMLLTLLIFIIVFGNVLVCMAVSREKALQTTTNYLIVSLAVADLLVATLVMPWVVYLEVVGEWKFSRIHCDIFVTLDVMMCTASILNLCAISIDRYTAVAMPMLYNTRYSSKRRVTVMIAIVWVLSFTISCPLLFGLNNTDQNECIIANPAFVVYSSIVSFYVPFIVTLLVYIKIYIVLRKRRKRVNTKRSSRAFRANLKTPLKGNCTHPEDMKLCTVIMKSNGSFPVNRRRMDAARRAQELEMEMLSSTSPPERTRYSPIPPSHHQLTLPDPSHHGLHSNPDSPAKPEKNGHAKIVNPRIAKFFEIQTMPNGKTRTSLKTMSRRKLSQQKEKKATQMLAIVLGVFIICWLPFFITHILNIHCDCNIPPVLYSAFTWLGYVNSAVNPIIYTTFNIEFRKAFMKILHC
Method: as §1, §2, §3

[1] = pH 7.7, 4° C., 40 minutes, > = from highest concentration which displaced ≤50% of the ligand, read-out: Ki for D2 binding

Ki (D1 dopamine receptors) | Ki (D2 dopamine receptors; [1]) | Ki for D2 / Ki for D1 (D2 dopamine receptors) | Ki (D2 dopamine receptors; estimated from single concentration data by Langmuir adsorption isotherm equation, read-out: Ki for D2 binding (marked E)) | SMILES
1.5 nM | 1100 nM | 730 | – | COc1cc2c(cc1O)C(C1(c3ccccc3Cl)CC1)N(C)CC2 (centres unmarked) [Example 74, 1-[1-(2-chlorophenyl)cyclopropyl]-7-hydroxy-6-methoxy-2-methyl-1,2,3,4-tetrahydroisoquinoline]
12 nM | 5100 nM | 430 | – | COc1cc2c(cc1O)C(C1(c3ccccc3Cl)CCCC1)N(C)CC2 (centres unmarked) [Example 84, 1-[1-(2-chlorophenyl)cyclopentyl]-7-hydroxy-6-methoxy-2-methyl-1,2,3,4-tetrahydroisoquinoline]
1.6 nM | 2500 nM | 1600 | – | Cc1cc2c(cc1O)C(C1(c3ccccc3Cl)CCC1)N(C)CC2 (centres unmarked) [Example 10, 1-[1-(2-chlorophenyl)cyclobutyl]-7-hydroxy-2,6-dimethyl-1,2,3,4-tetrahydroisoquinoline]
0.67 nM | 370 nM | 550 | – | Cc1cc2c(cc1O)C(C1(c3ccccc3Cl)CC1)N(C)CC2 (single isomer, unassigned; (+)) [Example 80, (+)-1-[1-(2-chlorophenyl)cyclopropyl]-7-hydroxy-2,6-dimethyl-1,2,3,4-tetrahydroisoquinoline]
1.8 nM | 7800 nM | 4300 | – | CN1CCc2cc(F)c(O)cc2C1C1(c2ccccc2Br)CCC1 (centres unmarked) [Example 34, 1-[1-(2-bromophenyl)cyclobutyl]-6-fluoro-7-hydroxy-2-methyl-1,2,3,4-tetrahydroisoquinoline]
130 nM | 4800 nM | 37 | – | CN1CCc2c(Cl)ccc(O)c2C1C1(c2ccccc2)CCC1 (centres unmarked) [Example 44, 5-chloro-8-hydroxy-2-methyl-1-(1-phenylcyclobutyl)-1,2,3,4-tetrahydroisoquinoline]
150 nM | 3500 nM | 23 | – | CN1CCc2cc(-c3ccccc3)c(O)cc2C1C1(c2ccccc2Cl)CCC1 (centres unmarked) [Example 11, 1-[1-(2-chlorophenyl)cyclobutyl]-7-hydroxy-2-methyl-6-phenyl-1,2,3,4-tetrahydroisoquinoline]
2.8 nM | 2000 nM | 710 | – | CN1CCc2cc(O)c(O)cc2C1C1(c2ccccc2Br)CCC1 (single isomer, unassigned; (+)) [Example 60, (+)-1-[1-(2-bromo-phenyl)cyclobutyl] -6,7-dihydroxy-2-methyl-1,2,3,4-tetrahydroisoquinoline]
2.3 nM | 52000 nM | 23000 | – | COc1cc2c(cc1O)C(C1(c3cc(OC)c(OC)cc3Br)CCC1)N(C)CC2 (centres unmarked) [Example 56, 1-[1-(2-bromo-4,5-dimethoxyphenyl)cyclobutyl]-7-hydroxy-6-methoxy-2-methyl-1,2,3,4-tetrahydroisoquinoline]
29 nM | 260000 nM | 9000 | – | Cc1ccccc1C1(C2c3cc(O)c(O)cc3CCN2C)CCC1 (centres unmarked) [Example 4, 6,7-dihydroxy-2-methyl-1-[1-(o-tolyl)cyclobutyl]-1,2,3,4-tetrahydroisoquinoline]
120 nM | – | – | 7000 nM | CN1CCc2cc(O)c(O)cc2C1C1(c2ccccc2)CCCCC1 (centres unmarked) [Example 29, 6,7-dihydroxy-2-methyl-1-(1-phenylcyclohexyl)-1,2,3,4-tetrahydroisoquinoline]
310 nM | > 5000 nM | > 16 | – | CN1CCc2cc(O)c(O)cc2C1C1(c2cccc(C(F)(F)F)c2)CCC1 (centres unmarked) [Example 8, 6,7-dihydroxy-2-methyl-1-[1-(3-trifluoromethylphenyl)cyclobutyl]-1,2,3,4-tetrahydroisoquinoline]
23 nM | 1900 nM | 83 | – | COc1cccc(C2(C3c4cc(O)c(OC)cc4CCN3C)CCC2)c1 (centres unmarked) [Example 39, 7-hydroxy-6-methoxy-1-[1-(3-methoxyphenyl)cyclobutyl]-2-methyl-1,2,3,4-tetrahydroisoquinoline]
2 nM | 1600 nM | 800 | – | CN1CCc2cc(F)c(O)cc2C1C1(c2ccccc2Cl)CC1 (centres unmarked) [Example 63, 1-[1-(2-chlorophenyl)cyclopropyl]-6-fluoro-7-hydroxy-2-methyl-1,2,3,4-tetrahydroisoquinoline]
17 nM | 5400 nM | 320 | – | CN1CCc2cc(Cl)c(O)cc2C1C1(c2ccccc2)CCC1 (centres unmarked) [Example 52, 6-chloro-7-hydroxy-2-methyl-1-(1-phenylcyclobutyl)-1,2,3,4-tetrahydroisoquinoline]
9.1 nM | 19000 nM | 2100 | – | CN1CCc2ccc(O)cc2C1C1(c2ccccc2Cl)CCC1 (centres unmarked) [Example 47, 1-[1-(2-chlorophenyl)cyclobutyl]-7-hydroxy-2-methyl-1,2,3,4-tetrahydroisoquinoline]
2.3 nM | 1800 nM | 780 | – | CN1CCc2cc(Cl)c(O)cc2C1C1(c2ccccc2Cl)CCC1 (centres unmarked) [Example 22, 6-chloro-1-[1-(2-chlorophenyl)cyclobutyl]-7-hydroxy-2-methyl-1,2,3,4-tetrahydroisoquinoline]
18 nM | 15000 nM | 830 | – | CN1CCc2cc(O)c(O)cc2C1C1(c2ccccc2C(F)(F)F)CCC1 (centres unmarked) [Example 23, 6,7-dihydroxy-2-methyl-1-[1-(2-trifluoromethylphenyl)cyclobutyl]-1,2,3,4-tetrahydroisoquinoline]
190 nM | 5700 nM | 30 | – | CN1CCc2cc(O)c(O)cc2C1C1(c2ccccc2)CC1 (centres unmarked) [Example 27, 6,7-dihydroxy-2-methyl-1-(1-phenylcyclopropyl)-1,2,3,4-tetrahydroisoquinoline]
1.3 nM | 240000 nM | 180000 | – | COc1cc2c(cc1O)C(C1(c3ccccc3Cl)CCC1)N(C)CC2 (centres unmarked) [Example 35, 1-[1-(2-chlorophenyl)cyclobutyl]-7-hydroxy-6-methoxy-2-methyl-1,2,3,4-tetrahydroisoquinoline]
79 nM | 13000 nM | 160 | – | CN1CCc2ccc(O)cc2C1C1(c2ccccc2)CCC1 (centres unmarked) [Example 41, 7-hydroxy-2-methyl-1-(1-phenylcyclobutyl)-1,2,3,4-tetrahydroisoquinoline]
4.1 nM | 3400 nM | 830 | – | COc1cc2c(cc1O)C(C1(c3ccccc3OC)CCC1)N(C)CC2 (centres unmarked) [Example 38, 7-hydroxy-6-methoxy-1-[1-(2-methoxyphenyl)cyclobutyl]-2-methyl-1,2,3,4-tetrahydroisoquinoline]
44 nM | 3700 nM | 84 | – | CN1CCc2cc(O)c(O)cc2C1C1(c2ccc(Cl)cc2)CC1 (centres unmarked) [Example 13, 1-[1-(4-chlorophenyl)cyclopropyl]-6,7-dihydroxy-2-methyl-1,2,3,4-tetrahydroisoquinoline]
120 nM | 4800 nM | 40 | – | CN1CCc2cc(O)c(O)cc2C1C1(c2ccc(Cl)cc2)CCCC1 (centres unmarked) [Example 14, 1-[1-(4-chlorophenyl)cyclopentyl]-6,7-dihydroxy-2-methyl-1,2,3,4-tetrahydroisoquinoline]
